Experiments:
A-549 = assay: Cytotoxic activity, IC50, A-549; assay type: cell-based; details: Homo sapiens, A549
HT-29 = assay: Cytotoxic activity, IC50, HT-29; assay type: cell-based; details: Homo sapiens
DU-145 = assay: Cytotoxic activity, IC50, DU-145; assay type: cell-based; details: Homo sapiens
MEL-28 = assay: Cytotoxic activity, IC50, MEL-28; assay type: cell-based; details: Homo sapiens, SK-MEL-28
P-388 = assay: Cytotoxic activity, IC50, P-388; assay type: cell-based; details: Mus musculus, P388
RAMOS = details: ramos cells

| SMILES | IC50 (A-549) [µM] | IC50 (HT-29) [µM] | IC50 (DU-145) [µM] | IC50 (MEL-28) [µM] | IC50 (P-388) [µM] | IC50 (RAMOS) [nM] |
| --- | --- | --- | --- | --- | --- | --- |
| C/C=C/C(=O)NC[C@H]1c2c(c(OC(C)=O)c(C)c3c2OCO3)C[C@H]2[C@H]3c4c(cc(C)c(OC)c4O)C[C@@H]([C@H](C#N)N12)N3C | 0.0008 | 0.0001 | 0.0008 | – | – | – |
| COc1c(C)cc2c(c1O)[C@@H]1[C@@H]3Cc4c(OC(C)=O)c(C)c5c(c4[C@H](CNC(=O)CCc4ccccc4)N3[C@@H](O)[C@H](C2)N1C)OCO5 | – | 0.0001 | 0.0001 | – | – | – |
| COc1c(C)cc2c(c1O)[C@@H]1[C@@H]3Cc4c(OC(C)=O)c(C)c5c(c4[C@H](CNC(=O)Cc4ccccc4)N3[C@@H](O)[C@H](C2)N1C)OCO5 | 0.0007 | 0.0007 | 0.0007 | 0.0007 | 0.0007 | – |
| COCOc1c(OC)c(C)cc2c1C1C3Cc4c(OC(C)=O)c(C)c5c(c4C(COC(=O)C=Cc4ccccc4)N3C(C#N)C(C2)N1C)OCO5 (centres unmarked) | 0.07 | 0.07 | 0.07 | 0.07 | – | – |
| CCCC(=O)OCC1c2c(c(OC(C)=O)c(C)c3c2OCO3)CC2C3c4c(cc(C)c(OC)c4O)CC(C(C#N)N12)N3C (centres unmarked) | 0.0008 | 0.0008 | 0.0008 | – | – | – |
| COc1c(C)cc2c(c1O)C1C3Cc4c(OC(C)=O)c(C)c5c(c4C(COC(=O)CCc4ccccc4)N3C(C#N)C(C2)N1C)OCO5 (centres unmarked) | – | 0.0001 | 0.0001 | – | – | – |
| COc1c(C)cc2c(c1O)C1C3Cc4c(OC(C)=O)c(C)c5c(c4C(COC(=O)C=Cc4ccccc4)N3C(C#N)C(C2)N1C)OCO5 (centres unmarked) | 0.0007 | 0.0007 | 0.0007 | 0.0007 | 0.0007 | – |
| CCCC(=O)OCC1c2c(c(OC(C)=O)c(C)c3c2OCO3)CC2C3c4c(cc(C)c(OC)c4O)CC(C(O)N12)N3C (centres unmarked) | – | 0.0001 | 0.0001 | – | – | – |
| COc1c(C)cc2c(c1O)C1C3Cc4c(OC(C)=O)c(C)c5c(c4C(COC(=O)C=Cc4cccc(C(F)(F)F)c4)N3C(O)C(C2)N1C)OCO5 (centres unmarked) | – | 0.0001 | 0.0001 | – | – | – |
| COc1c(C)cc2c(c1O)C1C3Cc4c(OC(C)=O)c(C)c5c(c4C(COC(=O)CCc4ccccc4)N3C(O)C(C2)N1C)OCO5 (centres unmarked) | – | 0.0001 | 0.0001 | – | – | – |
| COc1c(C)cc2c(c1O)C1C3Cc4c(OC(C)=O)c(C)c5c(c4C(COC(=O)C=Cc4ccccc4)N3C(O)C(C2)N1C)OCO5 (centres unmarked) | 0.0007 | 0.0007 | 0.0007 | 0.0007 | – | – |
| COc1c(C)cc2c(c1O)C1C3Cc4c(OC(C)=O)c(C)c5c(c4C(CNC(=O)C(CCCNC(=N)N)NC(=O)OC(C)(C)C)N3C(C#N)C(C2)N1C)OCO5 (centres unmarked) | > 1 | > 1 | – | – | – | – |
| COc1c(C)cc2c(c1O)C1C3Cc4c(OC(C)=O)c(C)c5c(c4C(CNC(=O)C(Cc4c[nH]c6ccccc46)NC(=O)OC(C)(C)C)N3C(O)C(C2)N1C)OCO5 (centres unmarked) | – | 0.012 | – | – | – | – |
| COc1c(C)cc2c(c1O)C1C3Cc4c(OC(C)=O)c(C)c5c(c4C(CNC(=O)c4cccnc4Cl)N3C(C#N)C(C2)N1C)OCO5 (centres unmarked) | – | 0.00015 | – | – | – | – |
| COc1c(C)cc2c(c1O)C1C3Cc4c(OC(C)=O)c(C)c5c(c4C(CNC(=O)c4cccnc4Cl)N3C(O)C(C2)N1C)OCO5 (centres unmarked) | – | 0.00015 | – | – | – | – |
| COc1c(C)cc2c(c1O)C1C3Cc4c(OC(C)=O)c(C)c5c(c4C(CNC(=O)CC4CCCCC4)N3C(C#N)C(C2)N1C)OCO5 (centres unmarked) | – | 0.0015 | – | – | – | – |
| COc1c(C)cc2c(c1OC(=O)CC1CCCCC1)C1C3Cc4c(OC(C)=O)c(C)c5c(c4C(CNC(=O)CC4CCCCC4)N3C(C#N)C(C2)N1C)OCO5 (centres unmarked) | – | 0.013 | – | – | – | – |
| COc1c(C)cc2c(c1O)C1C3Cc4c(OC(C)=O)c(C)c5c(c4C(CNC(=O)CCC4CCCCC4)N3C(C#N)C(C2)N1C)OCO5 (centres unmarked) | – | 0.0015 | – | – | – | – |
| COc1c(C)cc2c(c1OC(=O)CCC1CCCCC1)C1C3Cc4c(OC(C)=O)c(C)c5c(c4C(CNC(=O)CCC4CCCCC4)N3C(C#N)C(C2)N1C)OCO5 (centres unmarked) | – | 0.12 | – | – | – | – |
| COc1c(C)cc2c(c1O)[C@@H]1[C@@H]3Cc4c(OC(C)=O)c(C)c5c(c4[C@H](COC(=O)CCc4ccccc4)N3[C@@H](O)[C@H](C2)N1C)OCO5 | – | – | – | – | – | 1.86 |
